Measurements taken from patent publication US7943606B2, “Compositions and methods to control abnormal cell growth” (CanCure Laboratories, LLC, priority 2005, dated 2011).
Where a name gives a salt, the structure may show the parent alone.

How the values were obtained:
[1] = tested on: NIH 3T3 cells; experiment: Viability of NIH 3T3 normal fibroblasts (MTT assay); type: cell-based; conditions: 72 hours; for cytotoxicity at 100 µM: Mus musculus, NIH3T3, read-out: Decrease in cell number (maximal decrease = 100%), NIH 3T3
Protocol: (§1) To quantify cell death, around the time when significant and characteristic morphological changes took place, cells were pulse-labeled for 10 minutes with [^3H]thymidine to measure DNA activity as described elsewhere [Tomono, M. and Kiss, Z. (1995), “Ethanol enhances the stimulatory effects of insulin and insulin-like growth factor-I on DNA synthesis in NIH 3T3 fibroblasts,” Biochem. Biophys. Res. Commun. 208, 63-67]. Also, cells were collected as suspensions using trypsin, an established method in cell biology, followed by re-plating of cells in fresh tissue culture medium. If no viable cells were obtained after one week in culture, it meant that the cells at the time of re-plating were dead. Survival values obtained with untreated cells were considered 100%. For the determination of relative number of viable cells after treatments, in most cases the MTT assay was used. This calorimetric assay is based on the ability of living cells, but not dead cells, to reduce 3-(4,5-dimethyl thiazol-2-yl)-2,5-diphenyltetrazolium bromide [Carmichael, J, De Graff, W. G., Gazdar, A. F., Minna, J. D. and Mitchell, J. B. (1987), “Evaluation of tetrazolium-based semi-automated calorimetric assay: Assessment of chemosensitivity testing,” Cancer Res. 47, 936-942]. For this assay, cells were plated in 96-well plates, and the MTT assay was performed both in untreated and treated cell cultures. The MTT assay also was performed at the start of treatments to allow assessment of proliferation rates in the control and treated cell cultures.
(§2) The NIH 3T3 (normal) mouse fibroblast, A431 human epidermoid adenocarcinoma, and MCF-7 human breast cancer cells were cultured in DMEM medium containing 10% FBS. The MEL-28 human melanoma cells were cultured in MEM medium containing 10% FBS. The HT-29 human colon adenocarcinoma cells were cultured in McCoy's 5a medium containing 10% FBS. The A549 human lung carcinoma cells were maintained in Ham's F12K medium containing 10% FBS. Cells were seeded into 96-well plates and treated at ˜70-90% confluency. Two hours before treatments the medium was changed for fresh 10% serum medium, and then the cells were incubated for 72 hours in the presence of 0-200 μM of CCompound1 (●) or CCompound3 (CCDTHT) (▴), as indicated. The MTT assay was used to determine cell viability after treatments. The values, shown in FIGS. 5A-5F and expressed as percent decrease in viability compared to the untreated control cells, are the mean±std. dev. of 8 incubations in one experiment. Similar results were obtained in another experiment.
(§3) NIH3T3, T47D, A-431, HT-29, and MEL-28 cells were cultured as indicated earlier. CaOV-3 human ovarian cancer cells were cultured in DMEM containing 10% FBS. ZR-75-1 human estrogen receptor-positive breast cancer cells were maintained in RPMI 1640 medium supplemented with 10% FBS. HTB-157 human fetal fibroblasts, MEL-24 human malignant melanoma cells, Hep G2 human hepatoblastoma cells, and CaCO-2 human colon adenocarcinoma cells were maintained in Eagles's MEM containing 10% FBS. MB-231 human estrogen receptor-negative breast cancer cells were maintained in Leibovitz's L-15 medium supplemented with 10% FBS. Cells were seeded into 96-well plates and treated at ˜70-90% confluency. Two hours prior to treatments the medium was changed for fresh 10% serum medium, and then the cells were incubated for 10 days in the absence (□) or presence of 50 μM CCDTHT ? or 100 μM CCDTHT (▪). The medium was changed and the cells were re-treated on days 3 and 6. The MTT assay was used to determine cell viability on day 10. The data, shown in FIG. 6, are the mean±std. dev. of 8 incubations in one experiment. (The experiment was repeated twice with similar results).
NIH 3T3, MEL-28, MEL-24, CaOV-3, ZR-75-1, and T47D cells were cultured as described above. The OVCAR human ovarian cancer cells were cultured in DMEM containing 10% FBS. Cells were seeded into 96-well plates and used at ˜60-80% confluency. […]

[2] = tested on: MEL-28 cells; experiment: Viability of MEL-28 melanoma cells; type: cell-based, human; conditions: for inhibition at 100 µM: Homo sapiens, SK-MEL-28, read-out: Decrease in cell number (maximal decrease = 100%), MEL-28
Protocol: as §1
About 60% confluent cultures of MEL-28 cells, cultured in 12-well plates in MEM medium supplemented with 10% FBS, were either untreated (FIG. 2A), or were treated with 100 μM CCDTHT (CCompound3) for 72 hours (FIG. 2B).
as §2, with “experiment.” for “experiment. Similar results were obtained in another experiment.”
as §3, with “experiment.” for “experiment. (The experiment was repeated twice with similar results).”

Structure (SMILES)	cytotoxicity at 100 µM [1] [%]	inhibition at 100 µM ([2]; 100 μM, 72 hours) [%]	further results
CC[NH+](CC)CCCOCc1ccc2sc3ccccc3c(=O)c2c1 [CCcompound12, 2-{[3-(Diethylamino)propoxy]meth-yl}-9H-thioxanthen-9-one hydrochloride]	0	71	–
C[N+](C)(CCO)Cc1ccc2sc3ccccc3c(=O)c2c1 [CCcompound13, 2-Hydroxy-N,N-dimethyl-N-[(9-oxo-9H-thioxanthen-2-yl)methyl]-ethanaminium bromide]	25	11	–
C[N+](C)(CCCO)Cc1ccc2sc3ccccc3c(=O)c2c1 [CCcompound15, 3-Hydroxy-N,N-dimethyl-N-[(9-oxo-9H-thioxanthen-2-yl)methyl]propane-1-aminium bromide]	11	19	–
CC[N+](CC)(CCO)Cc1ccc2sc3ccccc3c(=O)c2c1 [CCcompound14, 2-Hydroxy-N,N-Diethyl-N-[(9-oxo-9H-thioxanthen-2-yl)methyl]-ethanaminium bromide]	30	90	–
CC[N+](CC)(CCCO)Cc1ccc2sc3ccccc3c(=O)c2c1 [CCcompound16, 3-Hydroxy-N,N-diethyl-N-[(9-oxo-9H-thioxanthen-2-yl)methyl]-propane-1-aminium bromide]	19	10	–
CC[N+](C)(CC)CCOCc1ccc2sc3ccccc3c(=O)c2c1.[I-] [CCDTHT, N,N-diethyl-N-methyl-2-[(9-oxo-9H-thioxanthen-2-yl)methoxy]-ethanaminium iodide]	29	60	sensitivity compared with HaCaT cells, NIH 3T3 fibroblasts ([1]; 50 and 100 μM, MTT): significantly less sensitive; reduction of cell numbers, MEL-28, CCDTHT versus CCompound1 ([2]; 0-200 μM, 72 hours, MTT): clearly more effective than CCompound1; reversibility: proliferation in fresh medium after treatment, MEL-28 ([2]; 50 μM 48 hours, then 96 hours without CCDTHT): not sufficient to suppress proliferation; DNA synthesis (radiolabeled thymidine), MEL-28 ([2]; 100 μM, 72 hours): did not synthesize detectable amount of DNA; morphology / cell death, MEL-28 ([2]; 100 μM, 72 hours, 12-well plates): practically all cells rounded up; decrease in the number of viable cells versus 0.5 mM HC-3, MEL-28 ([2]; 100 μM, 72 hours, MTT): much greater decreases in the number of viable cells compared to 0.5 mM HC-3; sensitivity to the inhibitory actions, MEL-28 ([2]; 50 and 100 μM, 10 days, MTT): very sensitive
CC[N+](C)(C)CCCOCc1ccc2sc3ccccc3c(=O)c2c1 [CCcompound11, N,N-Dimethyl-N-ethyl-3-[(9-oxo-9H-thioxanthen-2-yl)methoxy]-propane-1-aminium iodide]	21	94	–
CC[N+](C)(CC)CCCOCc1ccc2sc3ccccc3c(=O)c2c1 [CCcompound10, N,N-Diethyl-N-methyl-3-[(9-oxo-9H-thioxanthen-2-yl)methoxy]-propane-1-aminium iodide]	21	11	–
CC[N+](CC)(CC)CCCOCc1ccc2sc3ccccc3c(=O)c2c1 [CCcompound9, N,N,N-Triethyl-3-[(9-oxo-9H-thioxanthen-2-yl)methoxy]-propane-1-aminium iodide]	22	14	–
